From ChEMBL document CHEMBL5291721, “A preclinical secondary pharmacology resource illuminates target-adverse drug reaction associations of marketed drugs” (Nat Commun, 2023)

Columns and labels:
[1] = biological target: T1, Type-1 angiotensin II receptor (Homo sapiens, UniProt P30556)
T1 sequence (P30556 whole entry): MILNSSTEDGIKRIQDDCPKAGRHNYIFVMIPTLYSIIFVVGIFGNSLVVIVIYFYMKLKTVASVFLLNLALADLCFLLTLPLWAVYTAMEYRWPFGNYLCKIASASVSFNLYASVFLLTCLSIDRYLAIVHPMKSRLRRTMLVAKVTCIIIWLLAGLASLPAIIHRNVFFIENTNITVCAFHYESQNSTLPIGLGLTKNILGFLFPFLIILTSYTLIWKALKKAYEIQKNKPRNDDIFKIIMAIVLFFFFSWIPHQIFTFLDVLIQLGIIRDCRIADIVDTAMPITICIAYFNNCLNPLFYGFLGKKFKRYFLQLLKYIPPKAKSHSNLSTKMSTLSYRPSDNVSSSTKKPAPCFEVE

Cannabinoid receptor 1 = Cannabinoid receptor 1 (Homo sapiens, UniProt P21554); assay type: functional, cell-based
[2] = biological target: Growth hormone secretagogue receptor type 1 (Homo sapiens, UniProt Q92847)
[3] = biological target: T2, Prostaglandin G/H synthase 1 (Rattus norvegicus, UniProt Q63921); assay type: functional
T2 sequence (Q63921 whole entry): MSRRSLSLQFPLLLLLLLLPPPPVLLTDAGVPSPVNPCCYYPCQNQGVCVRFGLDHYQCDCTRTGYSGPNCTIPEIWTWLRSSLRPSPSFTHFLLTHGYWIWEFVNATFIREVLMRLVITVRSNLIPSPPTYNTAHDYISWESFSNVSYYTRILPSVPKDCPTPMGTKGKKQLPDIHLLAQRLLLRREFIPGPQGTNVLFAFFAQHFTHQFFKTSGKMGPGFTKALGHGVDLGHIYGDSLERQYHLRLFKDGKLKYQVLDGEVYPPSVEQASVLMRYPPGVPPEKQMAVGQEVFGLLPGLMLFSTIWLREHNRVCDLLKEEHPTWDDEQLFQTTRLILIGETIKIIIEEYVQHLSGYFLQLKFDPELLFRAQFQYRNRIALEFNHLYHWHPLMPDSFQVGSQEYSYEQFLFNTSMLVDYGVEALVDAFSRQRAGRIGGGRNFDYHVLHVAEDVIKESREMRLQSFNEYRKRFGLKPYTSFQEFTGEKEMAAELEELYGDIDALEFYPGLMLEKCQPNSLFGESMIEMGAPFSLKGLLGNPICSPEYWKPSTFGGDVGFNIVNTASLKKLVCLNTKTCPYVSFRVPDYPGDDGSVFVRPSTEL

[4] = biological target: T3, Alpha-2C adrenergic receptor (Homo sapiens, UniProt P18825); assay type: functional
T3 sequence (P18825 whole entry): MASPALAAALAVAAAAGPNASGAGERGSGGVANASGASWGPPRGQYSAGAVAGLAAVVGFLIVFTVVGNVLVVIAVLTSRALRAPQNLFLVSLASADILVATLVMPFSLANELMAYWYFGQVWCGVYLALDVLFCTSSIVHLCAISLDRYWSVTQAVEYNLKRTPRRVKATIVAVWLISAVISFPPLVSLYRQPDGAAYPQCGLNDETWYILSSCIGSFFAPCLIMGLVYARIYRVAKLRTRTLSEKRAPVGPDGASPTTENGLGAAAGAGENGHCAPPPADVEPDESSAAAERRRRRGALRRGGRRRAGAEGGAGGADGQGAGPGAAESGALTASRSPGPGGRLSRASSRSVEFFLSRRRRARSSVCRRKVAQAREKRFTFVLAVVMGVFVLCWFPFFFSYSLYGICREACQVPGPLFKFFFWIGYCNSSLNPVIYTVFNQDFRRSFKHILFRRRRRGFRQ

[5] = biological target: T4, Muscarinic acetylcholine receptor M1 (Homo sapiens, UniProt P11229); assay type: functional, cell-based
T4 sequence (P11229 whole entry): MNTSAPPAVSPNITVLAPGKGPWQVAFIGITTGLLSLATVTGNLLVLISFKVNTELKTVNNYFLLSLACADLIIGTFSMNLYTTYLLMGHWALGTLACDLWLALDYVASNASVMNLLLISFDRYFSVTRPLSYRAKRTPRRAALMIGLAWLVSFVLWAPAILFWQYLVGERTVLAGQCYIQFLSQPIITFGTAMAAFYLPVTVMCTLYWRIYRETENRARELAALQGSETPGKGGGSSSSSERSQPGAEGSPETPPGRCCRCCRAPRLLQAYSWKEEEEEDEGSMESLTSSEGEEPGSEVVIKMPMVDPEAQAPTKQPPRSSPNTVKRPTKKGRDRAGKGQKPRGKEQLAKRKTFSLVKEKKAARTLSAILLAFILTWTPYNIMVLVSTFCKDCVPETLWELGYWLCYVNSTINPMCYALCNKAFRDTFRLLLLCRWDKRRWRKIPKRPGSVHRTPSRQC
Also: assay procedure not described here.

Growth hormone secretagogue receptor type 1, sequence (Q92847 whole entry): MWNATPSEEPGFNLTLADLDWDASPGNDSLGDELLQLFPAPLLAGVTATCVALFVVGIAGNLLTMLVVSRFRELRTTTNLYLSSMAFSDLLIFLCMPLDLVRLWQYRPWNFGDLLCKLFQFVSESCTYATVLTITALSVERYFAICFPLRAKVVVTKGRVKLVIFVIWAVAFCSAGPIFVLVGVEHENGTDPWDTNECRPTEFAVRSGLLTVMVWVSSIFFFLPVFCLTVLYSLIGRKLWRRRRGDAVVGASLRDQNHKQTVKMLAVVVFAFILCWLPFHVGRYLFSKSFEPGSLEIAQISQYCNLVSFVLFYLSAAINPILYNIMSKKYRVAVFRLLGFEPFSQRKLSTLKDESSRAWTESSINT
Cannabinoid receptor 1, sequence (P21554 whole entry): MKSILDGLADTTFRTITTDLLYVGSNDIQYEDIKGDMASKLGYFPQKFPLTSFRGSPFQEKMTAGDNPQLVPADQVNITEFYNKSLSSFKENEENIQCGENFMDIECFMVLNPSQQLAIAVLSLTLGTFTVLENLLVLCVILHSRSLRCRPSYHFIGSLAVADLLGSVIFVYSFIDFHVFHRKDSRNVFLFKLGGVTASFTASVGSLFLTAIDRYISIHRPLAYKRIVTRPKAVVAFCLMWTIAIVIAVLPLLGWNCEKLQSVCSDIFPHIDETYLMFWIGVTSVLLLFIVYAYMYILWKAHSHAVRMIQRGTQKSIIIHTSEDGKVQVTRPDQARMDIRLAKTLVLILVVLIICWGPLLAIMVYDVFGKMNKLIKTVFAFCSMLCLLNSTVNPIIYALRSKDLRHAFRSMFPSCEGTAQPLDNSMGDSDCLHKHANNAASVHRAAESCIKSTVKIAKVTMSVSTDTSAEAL

SMILES: CNC[C@H](O)c1ccc(O)c(O)c1 [EPINEPHRINE]
- AC50 [1]: > 30 µM
- AC50 (Cannabinoid receptor 1): > 30 µM
- AC50 [2]: > 30 µM
- AC50 [3]: > 30 µM

SMILES: Cc1onc(-c2c(F)cccc2Cl)c1C(=O)N[C@@H]1C(=O)N2[C@@H]1SC(C)(C)[C@@H]2C(=O)O [FLOXACILLIN]
- AC50 [4]: > 30 µM
- AC50 [1]: > 30 µM
- AC50 (Cannabinoid receptor 1): > 30 µM
- AC50 [2]: > 30 µM
- AC50 [3]: > 30 µM

SMILES: C[N+](C)(CCCCCC[N+](C)(C)C1c2ccccc2-c2ccccc21)C1c2ccccc2-c2ccccc21 [HEXAFLUORENIUM]
- AC50 [5]: 7.41 µM

SMILES: Cc1cc(=O)oc2cc(O)ccc12 [HYMECROMONE]
- AC50 [5]: > 30 µM

SMILES: CCCCCCCN(CC)CCCC(O)c1ccc(NS(C)(=O)=O)cc1 (stereo unspecified) [IBUTILIDE]
- AC50 [4]: 3.2 µM
- AC50 [1]: > 30 µM
- AC50 [2]: > 30 µM
- AC50 [3]: > 30 µM

SMILES: COc1c2occc2c(OC)c2c(=O)cc(C)oc12 [KHELLIN]
- AC50 [5]: > 30 µM

SMILES: CC[C@H](C)C(=O)O[C@H]1C[C@@H](C)C=C2C=C[C@H](C)[C@H](CC[C@@H]3C[C@@H](O)CC(=O)O3)[C@H]21 [LOVASTATIN]
- AC50 [4]: > 10 µM
- AC50 [1]: 39.8 µM
- AC50 (Cannabinoid receptor 1): > 30 µM
- AC50 [2]: > 30 µM
- AC50 [3]: > 30 µM

SMILES: CC[C@@H](CO)NC(=O)[C@@H]1C=C2c3cccc4c3c(cn4C)C[C@H]2N(C)C1 [METHYSERGIDE]
- AC50 [4]: 3.5 µM
- AC50 [1]: > 30 µM
- AC50 (Cannabinoid receptor 1): > 30 µM
- AC50 [2]: > 30 µM
- AC50 [3]: > 30 µM

SMILES: CNC(=C[N+](=O)[O-])NCCSCc1csc(CN(C)C)n1 [NIZATIDINE]
- AC50 [4]: > 10 µM
- AC50 [1]: > 10 µM
- AC50 [2]: > 10 µM
- AC50 [3]: > 10 µM

SMILES: CN1Cc2c(N)cccc2C(c2ccccc2)C1 (stereo unspecified) [NOMIFENSINE]
- AC50 [4]: > 30 µM
- AC50 [1]: > 30 µM
- AC50 (Cannabinoid receptor 1): > 30 µM
- AC50 [2]: > 30 µM
- AC50 [3]: 7.5 µM

SMILES: CC(CN1c2ccccc2Sc2ccccc21)N(C)C (stereo unspecified) [PROMETHAZINE]
- AC50 [4]: 3 µM
- AC50 [1]: > 30 µM
- AC50 (Cannabinoid receptor 1): > 30 µM
- AC50 [2]: > 30 µM
- AC50 [3]: > 30 µM

SMILES: CCCc1cc(=O)[nH]c(=S)[nH]1 [PROPYLTHIOURACIL]
- AC50 [4]: > 10 µM
- AC50 [1]: > 10 µM
- AC50 [2]: > 10 µM
- AC50 [3]: 6.6 µM

SMILES: Cn1cc(C(=O)[C@@H]2CCc3nc[nH]c3C2)c2ccccc21 [RAMOSETRON]
- AC50 [4]: 11 µM
- AC50 [1]: > 30 µM
- AC50 (Cannabinoid receptor 1): > 30 µM
- AC50 [2]: > 30 µM
- AC50 [3]: > 30 µM

SMILES: CN(CCOc1ccc(CC2SC(=O)NC2=O)cc1)c1ccccn1 (stereo unspecified) [ROSIGLITAZONE]
- AC50 [4]: > 30 µM
- AC50 [1]: 18 µM
- AC50 (Cannabinoid receptor 1): > 30 µM
- AC50 [2]: > 30 µM
- AC50 [3]: > 30 µM

SMILES: S=P(N1CC1)(N1CC1)N1CC1 [THIOTEPA]
- AC50 [4]: 4.4 µM
- AC50 [1]: > 30 µM
- AC50 (Cannabinoid receptor 1): > 30 µM
- AC50 [2]: > 30 µM
- AC50 [3]: > 30 µM

SMILES: CC(C)C[C@H](NC(=O)[C@@H](O)[C@H](N)Cc1ccccc1)C(=O)O [UBENIMEX]
- AC50 [4]: > 30 µM
- AC50 (Cannabinoid receptor 1): > 30 µM
- AC50 [3]: > 30 µM

SMILES: CC(C)[C@H](N)C(=O)OCCOCn1cnc2c(=O)[nH]c(N)nc21 [VALACYCLOVIR]
- AC50 [4]: > 10 µM
- AC50 [1]: > 30 µM
- AC50 (Cannabinoid receptor 1): > 30 µM
- AC50 [2]: > 30 µM
- AC50 [3]: > 30 µM

SMILES: COc1cc(C(=O)NS(=O)(=O)c2ccccc2C)ccc1Cc1cn(C)c2ccc(NC(=O)OC3CCCC3)cc12 [ZAFIRLUKAST]
- AC50 [1]: > 10 µM
- AC50 (Cannabinoid receptor 1): > 30 µM
- AC50 [2]: > 10 µM
- AC50 [3]: 5.1 µM
